# Assay results as given in ChEMBL document CHEMBL6109052, “Overview of the epigenetic/cytotoxic dual-target inhibitors for cancer therapy” (Eur J Med Chem, 2025).
# Experiments:
# SNU-475 = experiment: Antiproliferative activity against human SNU-475 cells assessed as reduction in cell viability incubated for 48 hrs by MTT assay; conditions: SNU-475, 48 h
# HepG2 [1] = experiment: Antiproliferative activity against human HepG2 cells assessed as reduction in cell viability incubated for 48 hrs by MTT assay; conditions: HepG2, 48 h
# Bel-7402 = experiment: Antitumor activity against human Bel-7402 cells xenografted in nude mouse model assessed as tumor growth inhibition at 50 mg/kg, IG administered for 21 days relative to control; conditions: Bel-7402, po, 504 h, read-out: TGI
# Tubulin = experiment: Inhibition of tubulin polymerization (unknown origin); assay type: protein-complex assay, Homo sapiens
# A549 [2] = experiment: Antiproliferative activity against human A549 cells assessed as reduction in cell viability incubated for 3 days by Cell-titer glo reagent based assay; assay type: functional; conditions: A549, 72 h
# HCT-116 [3] = experiment: Antiproliferative activity against human HCT-116 cells assessed as reduction in cell viability incubated for 3 days by Cell-titer glo reagent based assay; assay type: functional; conditions: HCT-116, 72 h
# [4] = Half life in BALB/c mouse at 50 mg/kg, po by LC-MS/MS analysis; assay type: ADME, organism-based; conditions: in vivo
# [5] = Oral bioavailability in BALB/c mouse at 50 mg/kg by LC-MS/MS analysis; assay type: ADME, organism-based; conditions: in vivo
# [6] = molecular target: T1, Poly [ADP-ribose] polymerase 1 (Homo sapiens, UniProt P09874); experiment: Inhibition of PARP1 (unknown origin)
# [7] = Metabolic stability in human liver microsomes assessed as intrinsic clearance measured for 30 mins by LC-MS/MS analysis; assay type: ADME, Microsome; conditions: read-out: CLH
# [8] = Metabolic stability in human liver microsomes assessed as half life for 30 mins by LC-MS/MS analysis; assay type: ADME, Microsome
# Histone deacetylase 8 = Histone deacetylase 8 (Homo sapiens, UniProt Q9BY41); experiment: Inhibition of HDAC8 (unknown origin)
# Histone deacetylase 1 [9] = molecular target: T2, Histone deacetylase 1 (Homo sapiens, UniProt Q13547); experiment: Inhibition of HDAC1 (unknown origin)
# [10] = molecular target: T3, Protein deacetylase HDAC6 (Homo sapiens, UniProt Q9UBN7); experiment: Inhibition of HDAC6 (unknown origin)
# T3 sequence (Q9UBN7 whole entry): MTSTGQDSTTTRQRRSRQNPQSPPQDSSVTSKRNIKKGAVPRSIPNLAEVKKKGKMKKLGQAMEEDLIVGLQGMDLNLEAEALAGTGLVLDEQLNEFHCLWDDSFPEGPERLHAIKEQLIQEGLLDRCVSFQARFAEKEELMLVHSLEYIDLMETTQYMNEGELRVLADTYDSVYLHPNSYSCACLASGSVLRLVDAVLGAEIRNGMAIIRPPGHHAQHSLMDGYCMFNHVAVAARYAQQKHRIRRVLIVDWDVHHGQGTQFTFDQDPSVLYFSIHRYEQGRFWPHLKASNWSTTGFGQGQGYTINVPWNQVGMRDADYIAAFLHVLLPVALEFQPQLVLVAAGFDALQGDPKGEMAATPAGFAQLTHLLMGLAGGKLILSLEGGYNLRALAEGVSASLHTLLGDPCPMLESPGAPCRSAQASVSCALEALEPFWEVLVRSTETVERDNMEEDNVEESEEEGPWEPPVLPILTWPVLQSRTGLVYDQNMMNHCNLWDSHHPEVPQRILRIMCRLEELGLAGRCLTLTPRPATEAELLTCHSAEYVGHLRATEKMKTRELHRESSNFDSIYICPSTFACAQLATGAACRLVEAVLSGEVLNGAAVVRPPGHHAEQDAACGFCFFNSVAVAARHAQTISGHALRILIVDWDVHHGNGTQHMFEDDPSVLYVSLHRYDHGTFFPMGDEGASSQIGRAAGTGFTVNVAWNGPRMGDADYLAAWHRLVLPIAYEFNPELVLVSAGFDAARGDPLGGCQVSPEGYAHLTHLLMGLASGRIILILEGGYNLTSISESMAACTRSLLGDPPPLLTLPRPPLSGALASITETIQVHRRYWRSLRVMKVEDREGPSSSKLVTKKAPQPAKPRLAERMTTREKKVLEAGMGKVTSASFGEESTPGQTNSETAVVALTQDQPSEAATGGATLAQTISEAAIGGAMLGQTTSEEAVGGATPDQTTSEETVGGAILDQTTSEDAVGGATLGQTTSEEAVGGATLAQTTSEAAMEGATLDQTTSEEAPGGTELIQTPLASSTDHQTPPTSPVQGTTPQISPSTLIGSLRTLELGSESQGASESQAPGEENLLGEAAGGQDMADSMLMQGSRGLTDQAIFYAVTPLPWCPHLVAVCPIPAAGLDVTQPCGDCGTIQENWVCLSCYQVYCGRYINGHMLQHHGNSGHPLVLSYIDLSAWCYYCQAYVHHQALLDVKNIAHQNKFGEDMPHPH
# Histone deacetylase 2 = Histone deacetylase 2 (Homo sapiens, UniProt Q92769); experiment: Inhibition of HDAC2 (unknown origin)
# Histone deacetylase 3 = Histone deacetylase 3 (Homo sapiens, UniProt O15379); experiment: Inhibition of HDAC3 (unknown origin)
# K562 = experiment: Antiproliferative activity against human K562 cells assessed as reduction in cell viability incubated for 48 hrs by MTT assay; assay type: functional, cell-based; conditions: K562, 48 h
# MCF7 = experiment: Antiproliferative activity against human MCF7 cells assessed as reduction in cell viability incubated for 48 hrs by MTT assay; assay type: functional, cell-based; conditions: MCF7, 48 h
# HCT-116 [11] = experiment: Antiproliferative activity against human HCT-116 cells assessed as reduction in cell viability incubated for 48 hrs by MTT assay; assay type: functional, cell-based; conditions: HCT-116, 48 h
# HCC1937 = experiment: Antiproliferative activity against human HCC1937 cells assessed as reduction in cell viability incubated for 48 hrs by MTT assay; assay type: functional, cell-based; conditions: HCC1937, 48 h
# [12] = molecular target: T1, Poly [ADP-ribose] polymerase 1; experiment: Inhibition of PARP-1 (unknown origin)
# EA.hy 926 = experiment: Antiproliferative activity against human EA.hy 926 cells assessed as reduction in cell growth incubated for 72 hrs by MTT assay; assay type: functional, cell-based; conditions: EA.hy 926, 72 h
# [13] = molecular target: T3, Protein deacetylase HDAC6; experiment: Inhibition of human recombinant HDAC6 using fluorogenic peptide p53 (379 to 382 residues) RHKK(Ac) as substrate by fluorescence based analysis
# [14] = molecular target: Polyamine deacetylase HDAC10 (Homo sapiens, UniProt Q969S8); experiment: Inhibition of human recombinant HDAC10 using fluorogenic peptide p53 (379 to 382 residues) RHKK(Ac) as substrate by fluorescence based analysis
# NCI-H460 = experiment: Antiproliferative activity against human NCI-H460 cells assessed as reduction in cell growth incubated for 72 hrs by SRB assay; assay type: functional, cell-based; conditions: NCI-H460, 72 h
# CAPAN-1 = experiment: Antiproliferative activity against human CAPAN-1 cells assessed as reduction in cell growth incubated for 72 hrs by SRB assay; assay type: functional, cell-based; conditions: CAPAN-1, 72 h
# A-431 = experiment: Antiproliferative activity against human A-431 cells assessed as reduction in cell growth incubated for 72 hrs by SRB assay; assay type: functional, cell-based; conditions: A-431, 72 h
# HeLa = experiment: Antiproliferative activity against human Hela cells assessed as reduction in cell growth incubated for 72 hrs by SRB assay; assay type: functional, cell-based
# HT-29 [15] = experiment: Antiproliferative activity against human HT-29 cells assessed as reduction in cell growth incubated for 72 hrs by SRB assay; assay type: functional, cell-based; conditions: HT-29, 72 h
# DU-145 = experiment: Antiproliferative activity against human DU-145 cells assessed as reduction in cell growth incubated for 72 hrs by SRB assay; assay type: functional, cell-based; conditions: DU-145, 72 h
# HepG2 [16] = experiment: Antiproliferative activity against human HepG2 cells assessed as reduction in cell growth incubated for 72 hrs by SRB assay; assay type: functional, cell-based; conditions: HepG2, 72 h
# A2780 = experiment: Antiproliferative activity against human A2780 cells assessed as reduction in cell growth incubated for 72 hrs by SRB assay; assay type: functional, cell-based; conditions: A2780, 72 h
# [17] = Antiproliferative activity against human Doxorubicin-resistant A2780-DX cells assessed as reduction in cell growth incubated for 72 hrs by SRB assay; assay type: functional, cell-based
# [18] = Cytotoxicity against human MM472 cells assessed as reduction in cell viability incubated for 72 hrs by SRB assay; assay type: functional, cell-based; conditions: MM472, 72 h
# Histone deacetylase 1 [19] = molecular target: T2, Histone deacetylase 1; experiment: Inhibition of human recombinant HDAC1 using fluorogenic peptide p53 (379 to 382 residues) RHKK(Ac) as substrate by fluorescence based analysis
# [20] = Inhibition of human recombinant HDAC2 using fluorogenic peptide p53 (379 to 382 residues) RHKK(Ac) as substrate by fluorescence based analysis
# A549 [21] = experiment: Antiproliferative activity against human A549 cells; assay type: functional, cell-based
# HT-29 [22] = experiment: Antiproliferative activity against human HT-29 cells; assay type: functional, cell-based
# HepG2 [23] = experiment: Antiproliferative activity against human HepG2 cells; assay type: functional, cell-based
# MGC-803 = experiment: Antiproliferative activity against human MGC-803 cells by MTT assay; assay type: functional, cell-based
# DNA topoisomerase 1 = DNA topoisomerase 1 (Homo sapiens, UniProt P11387); experiment: Inhibition of Topoisomerase 1 (unknown origin)
# Histone deacetylase 4 = Histone deacetylase 4 (Homo sapiens, UniProt P56524); experiment: Inhibition of HDAC4 (unknown origin)
# Histone deacetylase 5 = Histone deacetylase 5 (Homo sapiens, UniProt Q9UQL6); experiment: Inhibition of HDAC5 (unknown origin)
# T2 sequence (Q13547 whole entry): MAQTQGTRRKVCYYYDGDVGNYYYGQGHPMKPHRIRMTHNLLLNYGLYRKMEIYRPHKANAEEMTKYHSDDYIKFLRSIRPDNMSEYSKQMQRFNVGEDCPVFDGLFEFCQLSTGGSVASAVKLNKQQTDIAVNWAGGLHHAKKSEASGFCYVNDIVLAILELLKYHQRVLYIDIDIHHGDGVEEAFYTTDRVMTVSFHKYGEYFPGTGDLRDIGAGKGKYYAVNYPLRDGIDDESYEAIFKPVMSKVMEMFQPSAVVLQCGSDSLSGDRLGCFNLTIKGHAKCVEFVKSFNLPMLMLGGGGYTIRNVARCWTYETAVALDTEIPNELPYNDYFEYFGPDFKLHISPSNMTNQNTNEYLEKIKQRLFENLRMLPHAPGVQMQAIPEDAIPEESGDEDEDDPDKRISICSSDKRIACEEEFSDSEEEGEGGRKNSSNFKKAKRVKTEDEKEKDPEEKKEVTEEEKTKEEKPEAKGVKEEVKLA
# Sequence of Histone deacetylase 3 (O15379 whole entry): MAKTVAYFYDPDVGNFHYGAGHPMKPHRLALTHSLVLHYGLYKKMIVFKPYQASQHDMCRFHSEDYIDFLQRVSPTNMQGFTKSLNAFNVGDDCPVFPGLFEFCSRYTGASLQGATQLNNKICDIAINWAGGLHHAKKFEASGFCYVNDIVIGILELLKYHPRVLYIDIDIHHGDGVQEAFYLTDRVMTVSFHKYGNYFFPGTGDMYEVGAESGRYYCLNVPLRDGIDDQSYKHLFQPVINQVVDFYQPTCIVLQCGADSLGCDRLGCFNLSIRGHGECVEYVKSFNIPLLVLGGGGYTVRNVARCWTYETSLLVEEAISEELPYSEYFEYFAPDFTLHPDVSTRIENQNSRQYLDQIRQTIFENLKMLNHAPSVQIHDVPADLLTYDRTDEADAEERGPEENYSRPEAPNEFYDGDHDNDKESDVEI
# Sequence of Histone deacetylase 2 (Q92769 whole entry): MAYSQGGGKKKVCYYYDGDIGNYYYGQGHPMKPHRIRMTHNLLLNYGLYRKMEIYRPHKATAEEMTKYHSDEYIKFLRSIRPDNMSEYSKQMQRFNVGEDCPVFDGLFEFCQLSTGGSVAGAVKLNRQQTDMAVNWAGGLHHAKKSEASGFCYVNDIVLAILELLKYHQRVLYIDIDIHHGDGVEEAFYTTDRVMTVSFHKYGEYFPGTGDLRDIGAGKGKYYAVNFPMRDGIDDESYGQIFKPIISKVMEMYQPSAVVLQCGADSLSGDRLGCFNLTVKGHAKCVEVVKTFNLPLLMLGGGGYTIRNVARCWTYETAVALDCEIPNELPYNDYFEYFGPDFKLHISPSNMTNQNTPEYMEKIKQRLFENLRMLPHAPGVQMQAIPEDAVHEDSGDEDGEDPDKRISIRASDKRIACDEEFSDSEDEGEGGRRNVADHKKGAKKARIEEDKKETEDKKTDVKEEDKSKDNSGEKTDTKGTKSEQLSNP
# T1 sequence (P09874 whole entry): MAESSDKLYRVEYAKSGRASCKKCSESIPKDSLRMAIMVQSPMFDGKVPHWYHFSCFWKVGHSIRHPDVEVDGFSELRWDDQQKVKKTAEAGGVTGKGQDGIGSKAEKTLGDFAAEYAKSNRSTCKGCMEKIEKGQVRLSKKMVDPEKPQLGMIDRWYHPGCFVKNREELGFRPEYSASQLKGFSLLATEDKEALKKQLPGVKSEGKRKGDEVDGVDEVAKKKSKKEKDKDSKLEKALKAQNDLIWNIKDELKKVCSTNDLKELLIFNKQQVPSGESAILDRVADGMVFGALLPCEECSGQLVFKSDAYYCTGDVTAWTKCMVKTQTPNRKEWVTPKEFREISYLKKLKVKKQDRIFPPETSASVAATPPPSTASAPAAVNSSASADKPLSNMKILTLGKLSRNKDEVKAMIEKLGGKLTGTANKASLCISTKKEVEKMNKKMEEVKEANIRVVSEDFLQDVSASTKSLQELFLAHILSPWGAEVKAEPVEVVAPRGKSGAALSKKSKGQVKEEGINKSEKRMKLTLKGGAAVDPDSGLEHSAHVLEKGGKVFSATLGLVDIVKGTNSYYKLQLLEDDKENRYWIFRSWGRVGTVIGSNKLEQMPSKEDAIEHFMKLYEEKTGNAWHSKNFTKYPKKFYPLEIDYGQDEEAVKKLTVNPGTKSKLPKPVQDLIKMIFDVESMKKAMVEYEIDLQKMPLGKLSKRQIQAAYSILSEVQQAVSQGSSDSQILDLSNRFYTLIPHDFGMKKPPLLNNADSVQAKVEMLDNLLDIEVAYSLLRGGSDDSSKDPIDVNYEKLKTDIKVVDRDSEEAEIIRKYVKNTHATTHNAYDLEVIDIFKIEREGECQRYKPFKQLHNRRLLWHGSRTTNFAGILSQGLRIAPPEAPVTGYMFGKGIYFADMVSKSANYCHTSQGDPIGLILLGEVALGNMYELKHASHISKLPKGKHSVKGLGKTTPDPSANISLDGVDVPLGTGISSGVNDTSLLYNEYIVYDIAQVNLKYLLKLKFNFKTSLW
# Sequence of DNA topoisomerase 1 (P11387 whole entry): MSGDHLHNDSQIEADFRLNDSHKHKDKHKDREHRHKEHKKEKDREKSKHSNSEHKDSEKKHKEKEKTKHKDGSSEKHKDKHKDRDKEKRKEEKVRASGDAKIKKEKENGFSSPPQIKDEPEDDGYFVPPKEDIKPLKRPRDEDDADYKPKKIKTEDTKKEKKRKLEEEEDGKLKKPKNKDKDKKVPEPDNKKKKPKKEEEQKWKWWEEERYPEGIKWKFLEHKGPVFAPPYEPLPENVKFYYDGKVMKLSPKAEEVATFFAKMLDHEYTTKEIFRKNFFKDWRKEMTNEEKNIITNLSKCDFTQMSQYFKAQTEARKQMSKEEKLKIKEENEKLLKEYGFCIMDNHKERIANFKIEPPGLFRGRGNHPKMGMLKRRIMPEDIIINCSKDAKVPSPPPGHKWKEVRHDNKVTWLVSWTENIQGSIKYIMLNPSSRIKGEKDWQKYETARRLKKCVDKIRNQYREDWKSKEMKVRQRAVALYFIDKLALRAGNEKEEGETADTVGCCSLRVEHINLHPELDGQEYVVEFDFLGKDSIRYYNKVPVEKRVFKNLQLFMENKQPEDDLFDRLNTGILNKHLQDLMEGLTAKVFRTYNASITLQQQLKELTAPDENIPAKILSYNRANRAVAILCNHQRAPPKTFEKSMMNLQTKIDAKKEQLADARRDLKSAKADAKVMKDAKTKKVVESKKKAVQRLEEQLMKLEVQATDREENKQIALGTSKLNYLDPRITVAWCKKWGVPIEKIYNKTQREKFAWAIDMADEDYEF
# Sequence of Histone deacetylase 4 (P56524 whole entry): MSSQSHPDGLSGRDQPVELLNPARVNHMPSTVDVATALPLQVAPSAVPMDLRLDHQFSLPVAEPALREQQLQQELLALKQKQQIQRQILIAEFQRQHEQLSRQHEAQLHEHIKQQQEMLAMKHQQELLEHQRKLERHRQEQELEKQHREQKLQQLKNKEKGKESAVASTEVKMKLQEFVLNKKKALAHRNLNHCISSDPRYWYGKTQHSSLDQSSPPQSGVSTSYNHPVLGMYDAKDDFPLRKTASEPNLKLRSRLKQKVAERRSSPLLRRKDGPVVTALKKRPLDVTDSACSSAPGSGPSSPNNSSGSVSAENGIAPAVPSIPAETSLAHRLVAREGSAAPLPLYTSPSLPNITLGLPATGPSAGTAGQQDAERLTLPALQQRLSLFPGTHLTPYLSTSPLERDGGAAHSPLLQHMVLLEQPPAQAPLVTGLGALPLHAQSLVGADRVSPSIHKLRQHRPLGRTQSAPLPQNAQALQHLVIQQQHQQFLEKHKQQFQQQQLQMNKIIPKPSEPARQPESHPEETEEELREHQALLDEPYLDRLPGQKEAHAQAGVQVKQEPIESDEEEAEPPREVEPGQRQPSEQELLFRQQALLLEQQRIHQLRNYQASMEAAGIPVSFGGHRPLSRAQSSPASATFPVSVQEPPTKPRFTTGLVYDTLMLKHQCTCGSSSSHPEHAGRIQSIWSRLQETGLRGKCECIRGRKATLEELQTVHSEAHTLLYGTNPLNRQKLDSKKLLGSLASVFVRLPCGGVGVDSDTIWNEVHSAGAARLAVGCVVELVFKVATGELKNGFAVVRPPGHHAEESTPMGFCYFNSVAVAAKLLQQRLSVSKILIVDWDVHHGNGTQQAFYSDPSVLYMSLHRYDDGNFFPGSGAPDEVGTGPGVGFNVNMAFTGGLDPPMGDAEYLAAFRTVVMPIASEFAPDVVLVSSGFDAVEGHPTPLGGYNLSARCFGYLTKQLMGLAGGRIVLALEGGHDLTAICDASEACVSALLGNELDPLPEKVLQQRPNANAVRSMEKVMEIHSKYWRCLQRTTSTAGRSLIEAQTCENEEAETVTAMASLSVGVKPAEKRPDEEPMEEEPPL
# Sequence of Polyamine deacetylase HDAC10 (Q969S8 whole entry, the tested form may be a part): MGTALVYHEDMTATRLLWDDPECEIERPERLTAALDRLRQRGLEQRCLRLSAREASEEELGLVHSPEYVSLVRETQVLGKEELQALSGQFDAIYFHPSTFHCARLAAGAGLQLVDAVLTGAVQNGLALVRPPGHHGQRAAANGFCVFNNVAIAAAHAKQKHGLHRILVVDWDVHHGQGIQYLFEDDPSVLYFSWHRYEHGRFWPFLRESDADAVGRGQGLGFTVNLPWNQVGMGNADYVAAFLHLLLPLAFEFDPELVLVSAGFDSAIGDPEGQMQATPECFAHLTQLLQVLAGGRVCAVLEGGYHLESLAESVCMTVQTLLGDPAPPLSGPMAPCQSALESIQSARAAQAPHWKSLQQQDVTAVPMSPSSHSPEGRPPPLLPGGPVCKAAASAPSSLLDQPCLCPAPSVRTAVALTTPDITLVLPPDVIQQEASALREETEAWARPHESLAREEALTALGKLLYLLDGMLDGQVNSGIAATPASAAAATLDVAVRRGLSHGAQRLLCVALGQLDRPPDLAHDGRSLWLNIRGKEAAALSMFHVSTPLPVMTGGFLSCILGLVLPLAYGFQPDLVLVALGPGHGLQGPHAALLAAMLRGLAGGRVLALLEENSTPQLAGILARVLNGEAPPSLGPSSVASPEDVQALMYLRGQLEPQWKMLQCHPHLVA
smiles,measurement,setting,value
COc1ccc(S(=O)(=O)N(CCSC(=S)N2CCN(C)CC2)c2cc(OC)c(OC)c(OC)c2)cc1,IC50,SNU-475,730 nM
same,IC50,HepG2 [1],570 nM
same,inhibition in vivo at 50 mg/kg,Bel-7402,43%
CCOC(=O)Nc1nc2ccc(-c3cc(Cc4n[nH]c(=O)c5ccccc45)ccc3F)cc2[nH]1,IC50,Tubulin,990 nM
same,IC50,A549 [2],141 nM
same,IC50,HCT-116 [3],352 nM
same,half-life,[4],3.28 h
same,bioavailability,[5],31%
same,IC50,[6],7 nM
COc1ccc(-c2cccc(-c3cc(OC)c(OC)c(OC)c3)n2)cc1C(=O)NO,IC50,Tubulin,2400 nM
same,CLint scaled,[7],22.8 mL/min/kg
same,half-life,[8],0.913 h
O=C(Cc1ccc(/C=C/C(=O)c2ncc[nH]2)cc1)Nc1ccc(F)cc1,IC50,Histone deacetylase 8,1400 nM
same,IC50,Histone deacetylase 1 [9],1800 nM
same,IC50,[10],2000 nM
same,IC50,Histone deacetylase 2,2100 nM
same,IC50,Histone deacetylase 3,1800 nM
O=C(c1cc(Cc2n[nH]c(=O)c3ccccc23)ccc1F)N1CCN(c2c3ccccc3nc3ccccc23)CC1,IC50,K562,3940 nM
same,IC50,MCF7,13800 nM
same,IC50,HCT-116 [11],12900 nM
same,IC50,HCC1937,7960 nM
same,IC50,[12],11800 nM
COc1ccc(-c2ocnc2-c2cc(Br)c(OC)c(OC)c2)cc1OCCCCCC(=O)NO,IC50,EA.hy 926,410 nM
COc1cc(/C=C/C(=O)c2ccc(NC(=O)c3ccccc3CN3C(=O)c4ccccc4C3=O)cc2)cc(OC)c1OC,IC50,Histone deacetylase 1 [9],220 nM
same,IC50,Histone deacetylase 2,430 nM
CC[C@]1(O)C(=O)OCc2c1cc1n(c2=O)Cc2c-1nc1ccc(O)cc1c2/C=N/OCCCCCC(=O)NO,IC50,[13],1560 nM
same,IC50,[14],2240 nM
same,IC50,NCI-H460,30 nM
same,IC50,CAPAN-1,30 nM
same,IC50,A-431,30 nM
same,IC50,HeLa,30 nM
same,IC50,HT-29 [15],30 nM
same,IC50,DU-145,30 nM
same,IC50,HepG2 [16],30 nM
same,IC50,A2780,30 nM
same,IC50,[17],30 nM
same,IC50,[18],48 nM
same,IC50,Histone deacetylase 1 [19],5260 nM
same,IC50,[20],9330 nM
COc1ccc2c3ccnc(C)c3n(CC3CCN(c4ncc(C(=O)NO)cn4)CC3)c2c1,IC50,A549 [21],5960 nM
same,IC50,HT-29 [22],1880 nM
same,IC50,HepG2 [23],2880 nM
COc1ccc(CN(C(=O)Cc2ccc(C(=O)Nc3ccccc3N)cc2)c2cc(OC)c(OC)c(OC)c2)cc1O,IC50,[10],77400 nM
same,IC50,Histone deacetylase 2,3010 nM
same,IC50,Histone deacetylase 3,5270 nM
same,IC50,MGC-803,39 nM
Cc1ccc(Cn2cc(CSC(=S)N3CCN(C(=O)OC(C)(C)C)CC3)nn2)cc1,IC50,Tubulin,1270 nM
CCc1c2c(nc3ccc(O)cc13)-c1cc3c(c(=O)n1C2)COC(=O)[C@]3(O)CC [7-ETHYL-10-HYDROXYCAMPTOTHECIN],IC50,DNA topoisomerase 1,770 nM
Cn1c(CCCCCCC(=O)NO)nc2ccc(N(CCCl)CCCl)cc21,IC50,Histone deacetylase 1 [9],17 nM
same,IC50,[10],72 nM
same,IC50,Histone deacetylase 2,10 nM
same,IC50,Histone deacetylase 3,25 nM
same,IC50,Histone deacetylase 4,6.4 nM
same,IC50,Histone deacetylase 5,107 nM
